The values that follow come from US10364256B2 (GlaxoSmithKline Intellectual Property Development Limited, priority 2015, dated 2019).

Read-outs that look alike come from different tables or passages of the source.

Assay [1] relates to NQO1 specific enzyme activity in BEAS-2B cells (marker for NRF2 activation). Nature of the assay: BEAS-2B NQO1 MTT Assay. The format is cell-based. To be noted: Homo sapiens, compound incubated 48 hours, read-out: EC50 (NQO1 specific enzyme activity induction). Summed up:
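BEAS-2B cells treated with compound for 48 h at 37 °C, then lysed; NQO1 activity in lysates measured kinetically by MTT reduction at A570 over 30 min. pEC50 from 3-parameter fit of ΔOD/min versus log concentration; lysate also taken for Cell Titer Glo.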

In assay [2] the target is T1, Keap1 Kelch domain (321-609) / TAMRA-labeled 16mer NRF2 peptide (ETGE motif) (Homo sapiens, UniProt Q14145).
T1 construct: the Kelch domain (321-609) of Keap1 is used
T1 sequence (Q14145 321-609): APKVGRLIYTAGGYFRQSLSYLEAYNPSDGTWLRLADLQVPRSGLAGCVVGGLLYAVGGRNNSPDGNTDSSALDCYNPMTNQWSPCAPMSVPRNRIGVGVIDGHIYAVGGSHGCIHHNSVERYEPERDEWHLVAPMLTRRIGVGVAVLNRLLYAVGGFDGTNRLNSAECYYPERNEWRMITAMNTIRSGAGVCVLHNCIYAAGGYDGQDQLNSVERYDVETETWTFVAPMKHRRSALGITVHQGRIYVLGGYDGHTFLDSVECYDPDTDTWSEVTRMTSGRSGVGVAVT
Nature of the assay: NRF2-Keap1 FP Assay (Keap1 Kelch fluorescence polarization). The format is binding. To be noted: 20 nM Keap1 (321-609), 8 nM Tamra labeled peptide. Summed up:
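Compound dilutions (3-fold) were incubated 1 hr at room temperature with 20 nM Keap1 Kelch (321-609) and 8 nM TAMRA-labeled ETGE 16mer peptide. Buffer was 50 mM Tris pH 8.0, 100 mM NaCl, 5 mM MgCl2, 1 mM DTT, 2 mM CHAPS, 0.005% BSA. Fluorescence polarization (mP) was normalized to controls and fitted with a four-parameter equation to give pIC50.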
A general note: Fluorescence polarisation rises when a labelled molecule tumbles more slowly, as on binding a larger partner.

Regarding `Cn1cc([C@@H]2C[C@H]2c2c(C(=O)O)cnn2-c2cccc(-c3cccc(OCC4CCCSC4)c3)c2)nn1` (mixture of isomers) [Example 144, 5-((1,2-trans)-2-(1-Methyl-1H-1,2,3-triazol-4-yl)cyclopropyl)-1-(3′-((tetrahydro-2H-thiopyran-3-yl)methoxy)-[1,1′-biphenyl]-3-yl)-1H-pyrazole-4-carboxylic Acid], the EC50 in assay [1] fell in the range of 10 to 100 nM. This molecule yielded an IC50 in assay [2] of 10 to 100 nM.
For `Cn1cc([C@@H]2C[C@H]2c2c(C(=O)O)cnn2-c2cccc(-c3cccc(OCC4CCC(F)(F)CC4)c3)c2)nn1` (racemic) [Example 145, 1-(3′-((4,4-Difluorocyclohexyl)methoxy)-[1,1′-biphenyl]-3-yl)-5-((1,2-trans)-2-(1-methyl-1H-1,2,3-triazol-4-yl)cyclopropyl)-1H-pyrazole-4-carboxylic acid], in assay [1], the half-maximal effective concentration (EC50) fell in the range of 100 to 1000 nM. For the same molecule, the IC50 in assay [2] fell in the range of 10 to 100 nM.
For the molecule `Cn1cc([C@@H]2C[C@H]2c2c(C(=O)O)cnn2-c2cccc(-c3cccc(OC[C@H]4CC[C@H](C(F)(F)F)CC4)c3)c2)nn1` (racemic) [Example 146, 5-((1,2-trans)-2-(1-Methyl-1H-1,2,3-triazol-4-yl)cyclopropyl)-1-(3′-(((1r,4R)-4-(trifluoromethyl)cyclohexyl)methoxy)-[1,1′-biphenyl]-3-yl)-1H-pyrazole-4-carboxylic acid], the EC50 in assay [1] fell in the range of 10 to 100 nM. In addition, the IC50 in assay [2] lay within 10 to 100 nM.
For `Cn1cc([C@@H]2C[C@H]2c2c(C(=O)O)cnn2-c2cccc(-c3cccc(OCC4CCCC(C(F)(F)F)C4)c3)c2)nn1` (mixture of isomers) [Example 147, 5-((1,2-trans)-2-(1-Methyl-1H-1,2,3-triazol-4-yl)cyclopropyl)-1-(3′-((3-(trifluoromethyl)cyclohexyl)methoxy)-[1,1′-biphenyl]-3-yl)-1H-pyrazole-4-carboxylic acid], the EC50 in assay [1] lay within 10 to 100 nM. Further, the half-maximal inhibitory concentration (IC50) in assay [2] fell in the range of 100 to 1000 nM.
On to `Cn1cc([C@@H]2C[C@H]2c2c(C(=O)O)cnn2-c2cccc(-c3cccc(OCC4CCCCC4C(F)(F)F)c3)c2)nn1` (mixture of isomers) [Example 148, 5-((1,2-trans)-2-(1-Methyl-1H-1,2,3-triazol-4-yl)cyclopropyl)-1-(3′-((2-(trifluoromethyl)cyclohexyl)methoxy)-[1,1′-biphenyl]-3-yl)-1H-pyrazole-4-carboxylic acid], for which, in assay [1], the EC50 is 10 to 100 nM. The molecule further yielded a concentration for half-maximal inhibition (IC50) in assay [2] of 10 to 100 nM.
With `Cn1cc([C@@H]2C[C@H]2c2c(C(=O)O)cnn2-c2cccc(-c3cccc(OCC4CCSCC4)c3)c2)nn1` (racemic) [Example 149, 5-((1,2-trans)-2-(1-Methyl-1H-1,2,3-triazol-4-yl)cyclopropyl)-1-(3′-((tetrahydro-2H-thiopyran-4-yl)methoxy)-[1,1′-biphenyl]-3-yl)-1H-pyrazole-4-carboxylic acid], in assay [1], the EC50 fell in the range of 100 to 1000 nM. Further, the IC50 in assay [2] fell in the range of 100 to 1000 nM.
As to `CCC1CCC(COc2cccc(-c3cccc(-n4ncc(C(=O)O)c4[C@@H]4C[C@H]4c4cn(C)nn4)c3)c2)CC1` (mixture of isomers) [Example 150, 1-(3′-((4-Ethylcyclohexyl)methoxy)-[1,1′-biphenyl]-3-yl)-5-((1,2-trans)-2-(1-methyl-1H-1,2,3-triazol-4-yl)cyclopropyl)-1H-pyrazole-4-carboxylic acid], the EC50 in assay [1] was in the range of 10 to 100 nM. Further, the IC50 in assay [2] fell in the range of 100 to 1000 nM.
On the same counts, the results for `Cn1cc([C@@H]2C[C@H]2c2c(C(=O)O)cnn2-c2cccc(-c3cccc(OCC4CCCCC4)c3F)c2)nn1` (racemic) [Example 152, 1-(3′-(Cyclohexylmethoxy)-2′-fluoro-[1,1′-biphenyl]-3-yl)-5-((1,2-trans)-2-(1-methyl-1H-1,2,3-triazol-4-yl)cyclopropyl)-1H-pyrazole-4-carboxylic Acid] are 10 to 100 nM and 10 to 100 nM.
Turning to `Cn1cc([C@@H]2C[C@H]2c2c(C(=O)O)cnn2-c2cccc(-c3cccc(OC(C4CCCCC4)C(F)(F)F)c3)c2)nn1` (mixture of isomers) [Example 157, 1-(3′-(1-Cyclohexyl-2,2,2-trifluoroethoxy)-[1,1′-biphenyl]-3-yl)-5-((1,2-trans)-2-(1-methyl-1H-1,2,3-triazol-4-yl)cyclopropyl)-1H-pyrazole-4-carboxylic Acid], in assay [1], the 50% effective concentration (EC50) was in the range of 10 to 100 nM. This molecule yielded a half-maximal inhibitory concentration (IC50) in assay [2] of 100 to 1000 nM.
Consider `CO[C@H]1CC[C@H](COc2cccc(-c3cccc(-n4ncc(C(=O)O)c4[C@H]4C[C@@H]4c4cn(C)nn4)c3)c2)CC1` (racemic) [Example 176, 1-(3′-(((1R,4S)-4-Methoxycyclohexyl)methoxy)-[1,1′-biphenyl]-3-yl)-5-((1,2-trans)-2-(1-methyl-1H-1,2,3-triazol-4-yl)cyclopropyl)-1H-pyrazole-4-carboxylic acid], for which the EC50 in assay [1] was 100 to 1000 nM. The same molecule displayed an IC50 in assay [2] of 10 to 100 nM.
The matching figures for `COC1CCCCC1COc1cccc(-c2cccc(-n3ncc(C(=O)O)c3[C@H]3C[C@@H]3c3cn(C)nn3)c2)c1` (mixture of isomers) [Example 177, 1-(3′-((2-Methoxycyclohexyl)methoxy)-[1,1′-biphenyl]-3-yl)-5-((1,2-trans)-2-(1-methyl-1H-1,2,3-triazol-4-yl)cyclopropyl)-1H-pyrazole-4-carboxylic acid]: 100 to 1000 nM and 100 to 1000 nM.
The matching figures for `COC1CCCC(COc2cccc(-c3cccc(-n4ncc(C(=O)O)c4[C@H]4C[C@@H]4c4cn(C)nn4)c3)c2)C1` (mixture of isomers) [Example 178, 1-(3′-((3-Methoxycyclohexyl)methoxy)-[1,1′-biphenyl]-3-yl)-5-((1,2-trans)-2-(1-methyl-1H-1,2,3-triazol-4-yl)cyclopropyl)-1H-pyrazole-4-carboxylic acid]: 100 to 1000 nM and 10 to 100 nM.
On the same counts, the results for `Cn1cc([C@H]2C[C@@H]2c2c(C(=O)O)cnn2-c2cccc(-c3cccc(OC[C@H]4CC[C@H](Cl)CC4)c3)c2)nn1` (racemic) [Example 185, 1-(3′-((4-Chlorocyclohexyl)methoxy)-[1,1′-biphenyl]-3-yl)-5-((1,2-trans)-2-(1-methyl-1H-1,2,3-triazol-4-yl)cyclopropyl)-1H-pyrazole-4-carboxylic Acid] are 10 to 100 nM and 100 to 1000 nM.
Consider `Cn1cc([C@H]2C[C@@H]2c2c(C(=O)O)cnn2-c2cccc(-c3cccc(OCC4CCCC(Cl)C4)c3)c2)nn1` (mixture of isomers) [Example 187, 1-(3′-((3-chlorocyclohexyl)methoxy)-[1,1′-biphenyl]-3-yl)-5-((1,2-trans)-2-(1-methyl-1H-1,2,3-triazol-4-yl)cyclopropyl)-1H-pyrazole-4-carboxylic acid], for which, in assay [1], the EC50 was in the range of 10 to 100 nM. The molecule also returned an IC50 in assay [2] of 100 to 1000 nM.
The matching figures for `CCn1cc([C@H]2C[C@@H]2c2c(C(=O)O)cnn2-c2cccc(-c3cccc(OC(C)C4CCCCC4)c3)c2)nn1` (mixture of isomers) [Example 192, 1-(3′-(1-cyclohexylethoxy)-[1,1′-biphenyl]-3-yl)-5-((1,2-trans)-2-(1-ethyl-1H-1,2,3-triazol-4-yl)cyclopropyl)-1H-pyrazole-4-carboxylic acid]: 1 to 10 nM and 10 to 100 nM.
On to `CCC[C@@H]1CCCCN1C(=O)c1cccc(-c2cccc(-n3ncc(C(=O)O)c3[C@H]3C[C@@H]3c3cn(CC)nn3)c2)c1` (racemic) [Example 201, 5-((1,2-trans)-2-(1-Ethyl-1H-1,2,3-triazol-4-yl)cyclopropyl)-1-(3′-((R)-2-propylpiperidine-1-carbonyl)-[1,1′-biphenyl]-3-yl)-1H-pyrazole-4-carboxylic acid], for which, in assay [1] (BEAS-2B, 48 h), the EC50 was 100 to 1000 nM. The molecule also registered a half-maximal inhibitory concentration (IC50) in assay [2] of 10 to 100 nM.
As to `CC(Oc1cccc(-c2cccc(-n3ncc(C(=O)O)c3[C@H]3C[C@@H]3c3cn(C)nn3)c2)c1)C1CCCCCC1` (mixture of isomers) [Example 230, 1-(3′-(1-Cycloheptylethoxy)-[1,1′-biphenyl]-3-yl)-5-((1,2-trans)-2-(1-methyl-1H-1,2,3-triazol-4-yl)cyclopropyl)-1H-pyrazole-4-carboxylic acid], the EC50 in assay [1] was 1 to 10 nM. Besides, the IC50 in assay [2] fell in the range of 10 to 100 nM.
On to `Cn1cc([C@H]2C[C@@H]2c2c(C(=O)O)cnn2-c2cccc(-c3cccc(OCc4ccc(-c5ccccc5)cc4)c3)c2)nn1` (racemic) [Example 237, 1-(3′-([1,1′-Biphenyl]-4-ylmethoxy)-[1,1′-biphenyl]-3-yl)-5-((1,2-trans)-2-(1-methyl-1H-1,2,3-triazol-4-yl)cyclopropyl)-1H-pyrazole-4-carboxylic Acid], for which the EC50 in assay [1] lay in the range of 100 to 1000 nM. The IC50 in assay [2] lay within 100 to 1000 nM.
In the case of `Cn1cc([C@H]2C[C@@H]2c2c(C(=O)O)cnn2-c2cccc(-c3cccc(OCc4cccc(-c5ccccc5)c4)c3)c2)nn1` (racemic) [Example 238, 1-(3′-([1,1′-Biphenyl]-3-ylmethoxy)-[1,1′-biphenyl]-3-yl)-5-((1,2- trans)-2-(1-methyl-1H-1,2,3-triazol-4-yl)cyclopropyl)-1H-pyrazole-4-carboxylic acid], the EC50 in assay [1] was 100 to 1000 nM. The 50% inhibitory concentration (IC50) in assay [2] is 100 to 1000 nM.
Consider `CC(Oc1cccc(-c2cccc(-n3ncc(C(=O)O)c3[C@H]3C[C@@H]3c3cn(C)nn3)c2)c1)c1cccc(-c2ccccc2)c1` (mixture of isomers) [Example 239, 1-(3′-(1-([1,1′-Biphenyl]-3-yl)ethoxy)-[1,1′-biphenyl]-3-yl)-5-((1,2-trans)-2-(1-methyl-1H-1,2,3-triazol-4-yl)cyclopropyl)-1H-pyrazole-4-carboxylic Acid], for which, in assay [1], the EC50 is 100 to 1000 nM. For the same molecule, the IC50 in assay [2] fell in the range of 100 to 1000 nM.

Broadly, the EC50 is the concentration giving half of the maximal effect. As usually defined, the IC50 is the midpoint of a concentration-inhibition curve. Low values mean inhibition by little substance, high ones a need for much substance.
